# Data: patent US8765778B2, “Rifamycin derivatives” (Alfa Wassermann, S.p.A., priority 2009, dated 2014)
# Experiments:
# E. coli = E. coli ATCC 25922, control standard
# Excerpt: (§1) They are expressed as milligrams of substance per liter of culture medium.
# P. aeruginosa = P. aeruginosa ATCC 27853, control standard
# Excerpt: as §1
# S. aureus = S. aureus ATCC29213, control standard
# Excerpt: as §1
# bacterial infection = details: following a 10 day course of treatment with a pharmaceutical formulation
# Excerpt: A patient suffering from a bacterial infection is identified.
# E. faecalis = details: ATCC 29212, control standard
smiles,measurement,setting,value
COC1/C=C/OC2(C)Oc3c(C)c(O)c4c([O-])c(c5c([nH]c6cc(C)cc[n+]65)c4c3C2=O)NC(=O)/C(CO)=C\C=C\C(C)C(O)C(C)C(O)C(C)C(OC(C)=O)C1C (centres unmarked) [Example 2],MIC,E. coli,32 mg/L
same,MIC,P. aeruginosa,32 mg/L
same,M.I.C.,S. aureus,0.5 mg/mL
same,level of bacterial infection in the patient,bacterial infection,reduced
same,M.I.C.,E. faecalis,64 mg/mL
